Laboratory results: ChEMBL document CHEMBL2074417, “The bisbenzylisoquinoline alkaloids, tetrandine and fangchinoline, enhance the cytotoxicity of multidrug resistance-related drugs via modulation of P-glycoprotein” (Anticancer Drugs, 1998)

What was measured:
[1] = target: T1, ATP-dependent translocase ABCB1 (Homo sapiens, UniProt P08183); assay: TP_TRANSPORTER: increase in Rhodamine 123 intracellular accumulation (R123: 4 uM, Tetrandine: 3 uM) in HCT15 cells; type: functional, cell-based; conditions: hct-15, 3 µM
[2] = target: T1, ATP-dependent translocase ABCB1; assay: TP_TRANSPORTER: increase in Rhodamine 123 intracellular accumulation (R123: 4 uM, Fangchinoline: 3 uM) in HCT15 cells; type: functional, cell-based; conditions: hct-15, 3 µM

T1 sequence (P08183 whole entry): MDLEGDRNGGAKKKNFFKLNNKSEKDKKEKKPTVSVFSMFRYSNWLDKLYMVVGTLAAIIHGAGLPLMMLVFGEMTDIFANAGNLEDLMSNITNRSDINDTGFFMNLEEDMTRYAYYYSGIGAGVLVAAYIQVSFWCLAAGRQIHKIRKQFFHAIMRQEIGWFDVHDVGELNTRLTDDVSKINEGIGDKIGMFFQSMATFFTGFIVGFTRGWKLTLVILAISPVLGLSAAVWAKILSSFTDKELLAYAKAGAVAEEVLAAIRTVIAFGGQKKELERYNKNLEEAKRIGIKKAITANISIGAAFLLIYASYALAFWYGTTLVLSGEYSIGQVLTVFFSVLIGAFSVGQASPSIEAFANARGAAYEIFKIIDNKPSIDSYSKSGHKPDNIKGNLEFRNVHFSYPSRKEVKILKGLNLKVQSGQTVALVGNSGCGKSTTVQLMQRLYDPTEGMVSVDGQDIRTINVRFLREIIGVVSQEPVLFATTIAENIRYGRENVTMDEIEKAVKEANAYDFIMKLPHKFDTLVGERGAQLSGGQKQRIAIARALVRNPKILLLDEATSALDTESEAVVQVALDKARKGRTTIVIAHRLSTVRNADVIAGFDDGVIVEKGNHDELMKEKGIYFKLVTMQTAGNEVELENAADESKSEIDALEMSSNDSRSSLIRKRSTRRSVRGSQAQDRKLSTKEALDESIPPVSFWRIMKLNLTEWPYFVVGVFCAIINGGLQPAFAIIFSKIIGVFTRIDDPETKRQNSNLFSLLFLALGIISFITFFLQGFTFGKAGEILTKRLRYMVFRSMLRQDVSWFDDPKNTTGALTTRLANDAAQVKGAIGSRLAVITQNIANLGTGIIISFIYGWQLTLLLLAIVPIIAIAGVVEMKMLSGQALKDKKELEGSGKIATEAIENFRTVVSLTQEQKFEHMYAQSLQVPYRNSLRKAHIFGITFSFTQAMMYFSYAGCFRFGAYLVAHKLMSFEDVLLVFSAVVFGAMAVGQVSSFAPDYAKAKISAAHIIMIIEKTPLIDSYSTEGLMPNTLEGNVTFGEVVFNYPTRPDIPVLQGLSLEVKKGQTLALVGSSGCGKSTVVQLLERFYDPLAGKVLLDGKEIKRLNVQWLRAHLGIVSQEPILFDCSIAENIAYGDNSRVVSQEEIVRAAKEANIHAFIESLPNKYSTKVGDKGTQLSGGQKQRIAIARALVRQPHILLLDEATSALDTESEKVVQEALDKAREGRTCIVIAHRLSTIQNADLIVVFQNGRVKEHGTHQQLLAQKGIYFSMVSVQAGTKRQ

Structure (SMILES)	Activity [1] [fold]	Activity [2] [fold]
COc1ccc2cc1Oc1ccc(cc1)C[C@H]1c3cc(c(OC)cc3CCN1C)Oc1c(OC)c(OC)cc3c1[C@H](C2)N(C)CC3 [FANCHININ]	2.5	
COc1ccc2cc1Oc1ccc(cc1)C[C@H]1c3cc(c(OC)cc3CCN1C)Oc1c(O)c(OC)cc3c1[C@H](C2)N(C)CC3 [FANGCHINOLINE]		2.4
